Test system: not listed separately
Assay: Inhibition of CCDC6/RET V804M mutant (unknown origin) expressed in mouse BaF3 cells assessed as reduction in cell proliferation after 72 hrs by MTT assay
Type: cell-based
Conditions: BaF3, 72 h

Point of comparison: `Cc1ccc(C(=O)Nc2ccc(CN3CCN(C)CC3)c(C(F)(F)F)c2)cc1C#Cc1cnc2cccnn12` [PONATINIB], IC50 0.136 µM. Against it:
- CN1CCN(Cc2ccc(NC(=O)c3ccc(Cl)c(-c4noc(-c5cncc(-c6cnn(C)c6)c5)n4)c3)cc2C(F)(F)F)CC1 — 3.2-fold higher, 0.442 µM

Molecular target: Proto-oncogene tyrosine-protein kinase receptor Ret (Homo sapiens, UniProt P07949)
Conditions: not given

Chain of Proto-oncogene tyrosine-protein kinase receptor Ret (P07949 whole entry): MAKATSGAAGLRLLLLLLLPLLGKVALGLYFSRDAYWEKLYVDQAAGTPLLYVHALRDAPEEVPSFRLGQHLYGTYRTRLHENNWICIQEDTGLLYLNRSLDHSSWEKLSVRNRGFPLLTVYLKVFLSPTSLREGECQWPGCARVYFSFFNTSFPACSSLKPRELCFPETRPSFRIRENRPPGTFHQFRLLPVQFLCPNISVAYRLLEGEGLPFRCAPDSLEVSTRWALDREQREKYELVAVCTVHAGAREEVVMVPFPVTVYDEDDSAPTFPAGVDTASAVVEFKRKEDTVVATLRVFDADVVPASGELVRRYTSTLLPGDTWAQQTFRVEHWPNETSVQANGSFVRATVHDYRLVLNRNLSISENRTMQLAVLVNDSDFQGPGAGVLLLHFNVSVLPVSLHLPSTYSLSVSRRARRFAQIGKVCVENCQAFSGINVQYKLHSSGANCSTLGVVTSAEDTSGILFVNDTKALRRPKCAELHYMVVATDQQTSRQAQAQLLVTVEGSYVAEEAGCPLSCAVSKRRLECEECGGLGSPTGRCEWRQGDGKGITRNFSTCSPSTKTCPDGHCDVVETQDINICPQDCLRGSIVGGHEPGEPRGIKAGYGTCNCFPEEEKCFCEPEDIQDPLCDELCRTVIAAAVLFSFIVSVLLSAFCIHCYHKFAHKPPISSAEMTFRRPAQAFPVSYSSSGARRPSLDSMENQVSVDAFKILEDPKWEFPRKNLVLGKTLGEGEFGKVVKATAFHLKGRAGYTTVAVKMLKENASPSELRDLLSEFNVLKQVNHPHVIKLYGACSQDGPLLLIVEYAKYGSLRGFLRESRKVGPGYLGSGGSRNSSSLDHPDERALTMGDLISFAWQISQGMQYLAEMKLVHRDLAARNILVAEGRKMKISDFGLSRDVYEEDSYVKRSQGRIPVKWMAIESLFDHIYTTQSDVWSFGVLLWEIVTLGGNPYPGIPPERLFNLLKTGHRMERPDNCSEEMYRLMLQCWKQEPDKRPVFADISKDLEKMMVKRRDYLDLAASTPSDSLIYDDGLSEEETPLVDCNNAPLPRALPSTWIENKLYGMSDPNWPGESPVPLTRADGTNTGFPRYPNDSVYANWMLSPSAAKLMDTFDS

Point of comparison: `Cc1ccc(C(=O)Nc2ccc(CN3CCN(C)CC3)c(C(F)(F)F)c2)cc1-c1noc(-c2cccnc2)n1`, IC50 0.108 µM. Against it:
- CN1CCN(Cc2ccc(NC(=O)c3ccc(Cl)c(C#Cc4cccnc4)c3)cc2C(F)(F)F)CC1 — 43-fold lower, 0.0025 µM
- CN1CCN(Cc2ccc(NC(=O)c3ccc(Cl)c(-c4nc(-c5cccnc5)no4)c3)cc2C(F)(F)F)CC1 — 8.7-fold lower, 0.0124 µM
- CN1CCN(Cc2ccc(NC(=O)c3cccc(-c4noc(-c5cccnc5)n4)c3)cc2C(F)(F)F)CC1 — 6-fold lower, 0.0179 µM
- CN1CCN(Cc2ccc(NC(=O)c3ccc(Cl)c(-c4nnc(-c5cccnc5)o4)c3)cc2C(F)(F)F)CC1 — within 1.5-fold, 0.138 µM
- CN1CCN(Cc2ccc(NC(=O)c3ccc(Cl)c(-c4nc(-c5cccnc5)co4)c3)cc2C(F)(F)F)CC1 — 5-fold lower, 0.0214 µM
- CN1CCN(Cc2ccc(NC(=O)c3ccc(Cl)c(-c4noc(-c5cccnc5)n4)c3)cc2C(F)(F)F)CC1 — 15-fold lower, 0.0073 µM
- CN1CCN(Cc2ccc(NC(=O)c3ccc(Cl)c(-c4noc(-c5ccncc5)n4)c3)cc2C(F)(F)F)CC1 — 4.1-fold lower, 0.0266 µM
- CN1CCN(Cc2ccc(NC(=O)c3ccc(Cl)c(-c4cnc(-c5cccnc5)o4)c3)cc2C(F)(F)F)CC1 — 5.6-fold lower, 0.0194 µM
- COc1ccc(-c2nc(-c3cc(C(=O)Nc4ccc(CN5CCN(C)CC5)c(C(F)(F)F)c4)ccc3Cl)no2)cn1 — 3.2-fold higher, 0.342 µM
- COCCOc1cncc(-c2nc(-c3cc(C(=O)Nc4ccc(CN5CCN(C)CC5)c(C(F)(F)F)c4)ccc3Cl)no2)c1 — 9.5-fold lower, 0.0114 µM
- CN1CCN(Cc2ccc(NC(=O)c3ccc(Cl)c(-c4noc(-c5cncc(N6CCOCC6)c5)n4)c3)cc2C(F)(F)F)CC1 — 51-fold lower, 0.0021 µM
- CN1CCN(Cc2ccc(NC(=O)c3ccc(Cl)c(-c4noc(-c5cncc(-c6cnn(C)c6)c5)n4)c3)cc2C(F)(F)F)CC1 — 60-fold lower, 0.0018 µM

Reference: ChEMBL document CHEMBL3867468, “Discovery of 4-chloro-3-(5-(pyridin-3-yl)-1,2,4-oxadiazole-3-yl)benzamides as novel RET kinase inhibitors” (Bioorg Med Chem Lett, 2016)
